What was measured:
[1] = test system: subgenomic HCV genotype 1b replicon, I389/NS3-3'/ LucUbiNeo-ET; assay: in vitro antiviral activity: luciferase assay in LucUbiNeo-ET HCV replicon cells; format: cell-based; details: Hepatitis C virus, 48 h, 2 days of incubation, luciferase readout, mean of duplicates
Excerpt: (§1) To analyze the antiviral activity of the compounds, we used a stable cell line, LucUbiNeo-ET, that contains a subgenomic HCV genotype 1b replicon, I389/NS3-3'/ LucUbiNeo-ET, that express luciferase constitutively (Krieger et al, JVI 2001; 75:4614; Frese et al., JGV 2003; 84: 1253-1259). To evaluate the cellular toxicity, we use other cell line, Huh-7/Lunet (Friebe et al., JVI 2005; 79: 380-392), that originally carried a selectable luciferase HCV 1b replicon and was cured by treatment with an HCV-specific inhibitor. These cells are characterized by high permissiveness for HCV RNA replication. LucUbiNeo-ET cell line was cultured at 37°C in a humidified atmosphere with 5% CO2 in Dulbecco's modified Eagle medium (D-MEM) supplemented with high glucose concentration (4.5g/l) (Invitrogen), 10% (vol/vol) heat-inactivated fetal bovine serum (Hyclone, Cultek), 2mM L-Glutamine (Sigma-aldrich), 1mM sodium pyruvate (Sigma-aldrich), 1% MEM NEEA (Sigma-aldrich), and 0.5 mg/ml of Geneticin (G418) (Gibco, Invitrogen). Cured or Huh-7/Lunet cell line was maintained at the same conditions as described above without the addition of Geneticin.
(§2) Antiviral activity was carried out in white-clear bottom 96-well plates, and cytotoxicity assays were performed in clear 96-well plates. Cells were seeded at a density of 10^4/well in 100ul D-MEM without selection of antibiotics. After 24h, nine fivefold serial dilution of compounds, with 3 replicates at each dilution, were prepared in D-MEM and added to the appropriate wells, yielding concentrations of 125 to 0,00032 ug/ml in a final volume of 100 ul of D-MEM. Following 2 days of incubation, we determined the antiviral activity (EC50) by quantifying the luciferase with the Luciferase Bright Glo assay (Promega). Briefly, LucUbiNeo-ET cells were harvested with the addition of 100 ul of luciferase per well, and after 2 minutes of shaking, the light was read in a Luminometer Fluoroskan Ascent FL. Toxicity (CC50) was analysed in the Lunet/HuH7 cells by the addition of 10 ul of MTT (3-(4,5-dimethylthiazol-2-yl)-2,5-diphenyltetrazolium bromide) per well. After 4h of incubation at 37°C in a humidified atmosphere with 5% CO2, the amount of formazan produced was quantified spectrophotometrically at 550/620 nm [C. Pannecouque et al, Nature protocol 2008; 3 (3): 427-434]. The EC50 and CC50 values were calculated for each compound. These assays were done in duplicate and the results shown in Table 1 represent the mean value of these duplicates.

cytotoxicity assay (MTT) = format: cell-based; details: human, Lunet/HuH7 cells, 2 days of incubation, mean of duplicates; for CC50 at 2 days: Huh-7/Lunet cells (cured HCV replicon cells)
Excerpt: as §1, §2

SMILES	EC50 [1] [µM]	CC50 at 2 days (cytotoxicity assay (MTT)) [µM]	CC50 at 48 h (cytotoxicity assay (MTT); huh-7/lunet cells) [µM]
Cn1c(=O)c(-c2c(F)cccc2C(F)(F)F)cc2c(N)nc(Nc3ccccc3)nc21 [Example 51, 4-amino-6-(2-fluoro-6-(trifluoromethyl)phenyl)-8-methyl-2-(phenylamino) pyrido[2,3-d]pyrimidine-7(8H)-one]	1 to 5	< 10	
Cn1c(=O)c(-c2c(Cl)cccc2Cl)cc2c(N)nc(N)nc21 [Example 52]	5 to 22		≥ 25
Cn1c(=O)c(-c2c(Cl)cccc2Cl)cc2cnc(Nc3ccccc3)nc21 [Example 53, 6-(2,6-dichlorophenyl)-8-methyl-2-(phenylamino)pyrido[2,3-d]pyrimidine-7(8H)-one]	< 1	< 10	
CCn1c(=O)c(-c2c(Cl)cccc2Cl)cc2c(N)nc(Nc3ccccc3)nc21 [Example 54, 4-amino-6-(2,6-dichlorophenyl)-8-ethyl-2-(phenylamino)pyrido[2,3-d] pyrimidine-7(8H)-one]	1 to 5	≥ 25	
CCCn1c(=O)c(-c2c(Cl)cccc2Cl)cc2c(N)nc(Nc3ccccc3)nc21 [Example 55, 4-amino-6-(2,6-dichlorophenyl)-2-(phenylamino)-8-propylpyrido[2,3-d] pyrimidine-7(8H)-one]	1 to 5	≥ 25	
CCCCn1c(=O)c(-c2c(Cl)cccc2Cl)cc2c(N)nc(Nc3ccccc3)nc21 [Example 56, 4-amino-8-butyl-6-(2,6-dichlorophenyl)-2-(phenylamino)pyrido[2,3-d] pyrimidine-7(8H)-one]	5 to 22	≥ 25	
CC(C)Cn1c(=O)c(-c2c(Cl)cccc2Cl)cc2c(N)nc(Nc3ccccc3)nc21 [Example 57, 4-amino-6-(2,6-dichlorophenyl)-8-isobutyl-2-(phenylamino)pyrido[2,3-d] pyrimidine-7(8H)-one]	< 1	≥ 25	
COCCn1c(=O)c(-c2c(Cl)cccc2Cl)cc2c(N)nc(Nc3ccccc3)nc21 [Example 58, 4-amino-6-(2,6-dichlorophenyl)-8-(2-methoxyethyl)-2-(phenylamino) pyrido[2,3-d]pyrimidine-7(8H)-one]	< 1	≥ 25	
Nc1nc(Nc2ccccc2)nc2c1cc(-c1c(Cl)cccc1Cl)c(=O)n2CCO [Example 59, 4-amino-6-(2,6-dichlorophenyl)-8-(2-hydroxyethyl)-2-(phenylamino) pyrido[2,3-d]pyrimidine-7(8H)-one]	1 to 5	≥ 25	
Cn1c(=O)c(-c2c(Cl)cccc2Cl)cc2c(N)nc(Nc3ccc(Br)cc3)nc21 [Example 60, 4-amino-2-((4-bromophenyl)amino)-6-(2,6-dichlorophenyl)-8-methylpyrido[2,3-d]pyrimidine-7(8H)-one]	< 1	< 10	
CN1CCN(c2ccc(Nc3nc(N)c4cc(-c5c(Cl)cccc5Cl)c(=O)n(C)c4n3)cc2)CC1 [Example 61]	< 1	< 10	

From EP2905024A1 (Institut Quimic De Sarriá Cets, Fundació Privada, priority 2014, dated 2015)
